Values quoted from earlier work as cited in patent US20080014261A1, “Non-narcotic biphasic release compositions and methods for treatment of coughing, sneezing, rhinorrhea, and/or nasal obstruction” (priority 2006, published 2008).

Settings: in vivo

## COc1ccccc1OCC(O)CO (stereo not shown) [Guaifenesin, 3-(2-methoxyphenoxy)-1,2 propanediol]
  plasma half life: one
